Laboratory results reported in ChEMBL document CHEMBL1128824 (Bioorg Med Chem Lett, 1995).

Columns and labels:
Homo sapiens [1] = organism: Homo sapiens; experiment: Compound was tested for inhibition of phorbol-induced superoxide generation in human neutrophils using neutrophil assay; type: functional
[2] = target: T1, Protein kinase C alpha type (Homo sapiens, UniProt P17252); experiment: Inhibition of Protein kinase C alpha expressed in Sf-9 cells
[3] = target: T2, Protein kinase C eta type (Homo sapiens, UniProt P24723); experiment: Inhibition of Protein kinase C eta expressed in Sf-9 cells
[4] = target: T3, Protein kinase C epsilon type (Homo sapiens, UniProt Q02156); experiment: Inhibition of protein kinase C epsilon expressed in Sf-9 cells
T3 sequence (Q02156 whole entry): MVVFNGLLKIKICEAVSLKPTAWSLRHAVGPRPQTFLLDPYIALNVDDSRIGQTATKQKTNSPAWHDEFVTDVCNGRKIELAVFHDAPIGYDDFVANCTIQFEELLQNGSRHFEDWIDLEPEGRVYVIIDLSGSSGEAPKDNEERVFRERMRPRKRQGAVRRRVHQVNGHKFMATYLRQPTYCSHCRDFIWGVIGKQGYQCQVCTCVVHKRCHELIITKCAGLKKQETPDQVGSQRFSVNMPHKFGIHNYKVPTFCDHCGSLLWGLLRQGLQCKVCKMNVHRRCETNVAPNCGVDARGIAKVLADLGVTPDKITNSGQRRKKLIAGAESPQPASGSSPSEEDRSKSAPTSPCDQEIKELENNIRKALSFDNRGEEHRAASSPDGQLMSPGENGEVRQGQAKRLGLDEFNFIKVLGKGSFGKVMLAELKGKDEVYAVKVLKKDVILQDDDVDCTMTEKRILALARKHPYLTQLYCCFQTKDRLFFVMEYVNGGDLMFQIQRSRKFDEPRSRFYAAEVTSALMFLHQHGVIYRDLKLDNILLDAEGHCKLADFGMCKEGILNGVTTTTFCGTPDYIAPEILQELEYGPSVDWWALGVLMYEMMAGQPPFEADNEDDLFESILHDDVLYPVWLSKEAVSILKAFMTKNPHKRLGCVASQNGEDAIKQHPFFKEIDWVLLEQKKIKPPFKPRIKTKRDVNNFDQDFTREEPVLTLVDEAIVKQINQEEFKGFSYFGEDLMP

[5] = target: T4, Protein kinase C beta type (Homo sapiens, UniProt P05771); experiment: Inhibition of Protein kinase C beta 2 expressed in Sf-9 cells
[6] = target: T5, Protein kinase C delta type (Homo sapiens, UniProt Q05655); experiment: Inhibition of Protein kinase C delta expressed in Sf-9 cells
Homo sapiens [7] = organism: Homo sapiens; experiment: Compound was tested for inhibition of phorbol-induced superoxide generation in human neutrophils after 1 hr pre-incubation at 4 degree C using neutrophil assay; value ranges from 2.8-10; type: functional
Homo sapiens [8] = organism: Homo sapiens; experiment: Compound was tested for inhibition of phorbol-induced superoxide generation in human neutrophils after 1 hr pre-incubation at 4 degree C using neutrophil assay; type: functional
Homo sapiens [9] = organism: Homo sapiens; experiment: Compound was tested for inhibition of phorbol-induced superoxide generation in human neutrophils using neutrophil assay; value ranges from […]-[…]; type: functional
[10] = target: T3, Protein kinase C epsilon type; experiment: Inhibition of protein kinase C epsilon expressed in Sf-9 cells (inactive)
[11] = target: T1, Protein kinase C alpha type; experiment: Inhibition of Protein kinase C alpha expressed in Sf-9 cells (inactive)
[12] = target: T2, Protein kinase C eta type; experiment: Inhibition of Protein kinase C eta expressed in Sf-9 cells (inactive)
[13] = target: T4, Protein kinase C beta type; experiment: Inhibition of Protein kinase C beta 2 expressed in Sf-9 cells (inactive)
Homo sapiens [14] = organism: Homo sapiens; experiment: Compound was tested for inhibition of phorbol-induced superoxide generation in human neutrophils after 1 hr pre-incubation at 4 degree C using neutrophil assay; value ranges from 0.33-0.85; type: functional
[15] = target: T5, Protein kinase C delta type; experiment: Inhibition of Protein kinase C delta expressed in Sf-9 cells (inactive)
Homo sapiens [16] = organism: Homo sapiens; experiment: cells; type: functional, organism-based
Homo sapiens [17] = organism: Homo sapiens; experiment: Compound was tested for inhibition of phorbol-induced superoxide generation in human neutrophils using neutrophil assay; value ranges from 0.8-2.1; type: functional

T2 sequence (P24723 whole entry): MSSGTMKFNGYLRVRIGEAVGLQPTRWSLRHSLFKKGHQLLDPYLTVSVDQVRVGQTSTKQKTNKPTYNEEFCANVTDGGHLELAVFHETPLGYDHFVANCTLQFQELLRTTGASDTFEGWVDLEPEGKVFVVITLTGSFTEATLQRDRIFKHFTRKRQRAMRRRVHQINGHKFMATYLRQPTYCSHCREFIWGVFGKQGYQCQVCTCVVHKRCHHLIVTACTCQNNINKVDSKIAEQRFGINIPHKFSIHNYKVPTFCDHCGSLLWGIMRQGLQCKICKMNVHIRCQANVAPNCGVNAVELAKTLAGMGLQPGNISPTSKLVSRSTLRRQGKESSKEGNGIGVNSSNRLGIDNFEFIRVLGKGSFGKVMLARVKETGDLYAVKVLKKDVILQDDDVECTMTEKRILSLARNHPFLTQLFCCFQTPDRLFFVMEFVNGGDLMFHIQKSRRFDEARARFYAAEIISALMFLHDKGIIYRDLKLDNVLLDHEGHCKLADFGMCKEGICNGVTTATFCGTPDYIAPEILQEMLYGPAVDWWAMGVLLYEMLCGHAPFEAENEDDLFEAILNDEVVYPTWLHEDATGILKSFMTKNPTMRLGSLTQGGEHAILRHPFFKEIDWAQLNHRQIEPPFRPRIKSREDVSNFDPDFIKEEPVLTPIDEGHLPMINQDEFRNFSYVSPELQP
T4 sequence (P05771 whole entry): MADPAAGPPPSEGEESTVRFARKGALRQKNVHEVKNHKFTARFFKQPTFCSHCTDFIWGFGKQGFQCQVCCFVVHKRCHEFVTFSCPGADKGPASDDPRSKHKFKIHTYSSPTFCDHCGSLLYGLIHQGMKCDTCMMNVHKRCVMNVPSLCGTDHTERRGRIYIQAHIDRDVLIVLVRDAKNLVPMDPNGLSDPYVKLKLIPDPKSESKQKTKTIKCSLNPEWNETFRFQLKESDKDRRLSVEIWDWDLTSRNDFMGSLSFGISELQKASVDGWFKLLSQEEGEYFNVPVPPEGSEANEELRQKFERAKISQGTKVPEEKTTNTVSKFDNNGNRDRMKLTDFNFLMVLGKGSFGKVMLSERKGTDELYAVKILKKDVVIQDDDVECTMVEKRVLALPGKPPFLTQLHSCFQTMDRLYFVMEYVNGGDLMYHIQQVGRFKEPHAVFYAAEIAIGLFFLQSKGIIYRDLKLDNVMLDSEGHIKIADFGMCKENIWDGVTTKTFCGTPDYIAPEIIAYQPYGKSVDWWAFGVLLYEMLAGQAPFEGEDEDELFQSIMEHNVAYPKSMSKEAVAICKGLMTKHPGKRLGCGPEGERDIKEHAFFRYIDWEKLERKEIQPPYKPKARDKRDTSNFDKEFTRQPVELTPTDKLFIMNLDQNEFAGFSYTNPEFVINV
T5 sequence (Q05655 whole entry): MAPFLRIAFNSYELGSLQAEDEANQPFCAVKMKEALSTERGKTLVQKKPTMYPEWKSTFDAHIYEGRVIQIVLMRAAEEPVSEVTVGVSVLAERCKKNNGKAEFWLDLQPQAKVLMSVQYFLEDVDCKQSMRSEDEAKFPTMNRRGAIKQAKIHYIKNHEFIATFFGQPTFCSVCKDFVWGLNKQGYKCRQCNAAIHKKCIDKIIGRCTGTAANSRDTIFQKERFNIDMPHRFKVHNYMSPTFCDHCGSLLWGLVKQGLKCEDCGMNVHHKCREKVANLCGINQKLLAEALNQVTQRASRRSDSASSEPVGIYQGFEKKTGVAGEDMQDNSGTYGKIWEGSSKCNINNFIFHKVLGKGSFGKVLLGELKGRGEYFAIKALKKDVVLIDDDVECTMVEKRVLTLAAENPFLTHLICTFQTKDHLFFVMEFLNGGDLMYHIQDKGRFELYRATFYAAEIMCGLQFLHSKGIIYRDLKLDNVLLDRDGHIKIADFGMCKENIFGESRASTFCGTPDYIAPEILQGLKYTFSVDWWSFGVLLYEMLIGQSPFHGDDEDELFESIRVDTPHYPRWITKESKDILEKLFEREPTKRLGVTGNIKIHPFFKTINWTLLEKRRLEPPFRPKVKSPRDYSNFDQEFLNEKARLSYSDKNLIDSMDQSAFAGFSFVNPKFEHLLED

Row | SMILES | IC50 (Homo sapiens [1]; Homo sapiens) [nM] | IC50 [2] [nM] | IC50 [3] [nM] | IC50 [4] [nM] | IC50 [5] [nM] | IC50 [6] [nM] | also measured
1 | O=C(N[C@@H]1CNC[C@H]1OC(=O)c1cc(O)c(C(=O)c2c(O)cccc2C(=O)OCC2CCCCC2)c(O)c1)c1ccc(O)cc1 | > 10000 | 17000 | 50 | 25000 | 22000 | 310 | 
2 | CC(C)(C)C(=O)OCOC(=O)c1cccc(O)c1C(=O)c1c(O)cc(C(=O)O[C@@H]2CNC[C@H]2NC(=O)c2ccc(O)cc2)cc1O |  | 160 | 4 | 34 | 20 | 10 | IC50 (Homo sapiens [7]): > 2800 nM
3 | COC(=O)c1cccc(O)c1C(=O)c1c(O)cc(C(=O)O[C@@H]2CNC[C@H]2NC(=O)c2ccc(O)cc2)cc1O | > 50000 | 250 | 16 | 170 | 290 | 18 | 
4 | CCOC(=O)c1cccc(O)c1C(=O)c1c(O)cc(C(=O)O[C@@H]2CNC[C@H]2NC(=O)c2ccc(O)cc2)cc1O | > 10000 | 2200 | 20 | 1300 | 1000 | 50 | 
5 | CC(C)OC(=O)c1cccc(O)c1C(=O)c1c(O)cc(C(=O)O[C@@H]2CCC[C@H]2NC(=O)c2ccc(O)cc2)cc1O | > 10000 | 4700 | 260 | 13000 | 440 | 50 | 
6 | O=C(N[C@@H]1CCC[C@H]1OC(=O)c1cc(O)c(C(=O)c2c(O)cccc2C(=O)O)c(O)c1)c1ccc(O)cc1 |  |  |  |  |  |  | IC50 (Homo sapiens [8]): > 10000 nM
7 | O=C(N[C@@H]1CNC[C@H]1OC(=O)c1cc(O)c(C(=O)c2c(O)cccc2C(=O)O)c(O)c1)c1ccc(O)cc1 | > 50000 |  |  |  |  |  | 
8 | CCOC(=O)c1cccc(O)c1C(=O)c1c(O)cc(C(=O)O[C@@H]2CCC[C@H]2NC(=O)c2ccc(O)cc2)cc1O | > 2600 | 920 | 52 | 660 | 1600 | 67 | 
9 | CCCCOC(=O)c1cccc(O)c1C(=O)c1c(O)cc(C(=O)O[C@@H]2CNC[C@H]2NC(=O)c2ccc(O)cc2)cc1O | > 10000 | 3100 | 40 | 3700 | 2200 | 80 | 
10 | CC(=O)OCOC(=O)c1cccc(O)c1C(=O)c1c(O)cc(C(=O)O[C@@H]2CNC[C@H]2NC(=O)c2ccc(O)cc2)cc1O |  | 130 | 14 | 130 | 20 | 24 | IC50 (Homo sapiens [8]): > 10000 nM
11 | CC(C)(C)C(=O)OCOC(=O)c1cccc(O)c1C(=O)c1c(O)cc(C(=O)O[C@@H]2CCC[C@H]2NC(=O)c2ccc(O)cc2)cc1O |  |  |  |  |  |  | IC50 (Homo sapiens [9]): > 3680 nM; IC50 [10]: Not Active; IC50 [11]: Not Active; IC50 [12]: Not Active; IC50 [13]: Not Active; IC50 (Homo sapiens [14]): > 330 nM; IC50 [15]: Not Active
12 | CC(C)COC(=O)c1cccc(O)c1C(=O)c1c(O)cc(C(=O)O[C@@H]2CNC[C@H]2NC(=O)c2ccc(O)cc2)cc1O | > 10000 | 19000 | 50 | 3200 | 20000 | 200 | 
13 | COC(=O)c1cccc(O)c1C(=O)c1c(O)cc(C(=O)O[C@@H]2CCC[C@H]2NC(=O)c2ccc(O)cc2)cc1O (racemic) |  | 320 | 30 | 260 | 330 | 30 | IC50 (Homo sapiens [16]): > 1720 nM; IC50 (Homo sapiens [17]): > 800 nM
14 | COC(=O)c1cccc(O)c1C(=O)c1c(O)cc(C(=O)O[C@@H]2CCC[C@H]2NC(=O)c2ccc(O)cc2)cc1O (stereo in doubt; 8 (+)) |  | 4200 | 400 | 20000 | 1800 | 250 | IC50 (Homo sapiens [1]): > 10000 nM
15 | COC(=O)c1cccc(O)c1C(=O)c1c(O)cc(C(=O)O[C@@H]2CCC[C@H]2NC(=O)c2ccc(O)cc2)cc1O (stereo in doubt; 8 (-)) |  | 210 | 4 | 300 | 40 | 5 | IC50 (Homo sapiens [1]): > 1500 nM
16 | O=C(N[C@@H]1CNCCC[C@H]1OC(=O)c1cc(O)c(C(=O)c2c(O)cccc2C(=O)O)c(O)c1)c1ccc(O)cc1 [BALANOL] | > 10000 |  |  |  |  |  | 
